# Measurements as given in US9714240B2 (PharmAkea, Inc., priority 2013, dated 2017).
# Target: T1, human autotaxin (Homo sapiens, UniProt Q13822)
# T1 construct: Conditioned media is collected from confluent Hep3B cells and concentrated 20-fold; endogenous in cells; host or cells: Hep3B human hepatocellular carcinoma cells (concentrated conditioned medium)
# Test: Human Autotaxin Assay (choline release from LPC)
# Assay type: biochemical
# Details: ATX in concentrated conditioned media from Hep3B cells, substrate LPC 14:0 100 uM, absorbance at 555 nm
# Method: ATX activity is assayed in concentrated conditioned media from Hep3B human hepatocellular carcinoma cells by measuring the amount of choline released from the substrate, lysophosphatidylcholine (LPC) as it is cleaved to LPA. Conditioned media is collected from confluent Hep3B cells and concentrated 20-fold using Centriprep-30 filter devices (Millipore). To assay for autotaxin inhibition, 10-20 μL of the concentrated conditioned media is incubated with 2.5 μL of a test compound in DMSO and 72.5-82.5 μL lyso-PLD buffer (100 mM Tris pH 9, 500 mM NaCl, 5 mM MgCl2, 5 mM CaCl2, 0.05% Triton X-100 in the presence or absence of 0.2% fatty-acid-free human serum albumin) for 15 min at 37° C. After the 15 min incubation, 5 ul of 2 mM LPC (14:0; Avanti Polar Lipids Cat#855575C) diluted in lyso-PLD buffer is added for a final concentration of 100 uM and the incubation continues for 1.5-3 hours at 37° C. 100 μl of a color mix containing 4.5 mM 4-aminoantipyrine, 2.7 mM N-ethyl-N-(2-hydroxy-3-sulfopropyl)-m-toluidine, 21 units/ml horseradish peroxidase and 3 units/ml choline oxidase in 50 mM Tris, pH 8, 4.5 mM MgCl2 is added and the incubation continued for 15 minutes at room temperature before reading the absorbance at 555 nm.
row,IC50 [µM],SMILES
1,0.5 to 10,"N#C/C(=C\c1cn(Cc2ccc(F)cc2)c2ccccc12)c1ccc(C(=O)O)cc1 [Compound 1-1, 4-[(Z)-1-cyano-2-[1-[(4-fluorophenyl)methyl]indol-3-yl]vinyl]benzoic Acid]"
2,0.5 to 10,"N#C/C(=C\c1cn(Cc2ccc(F)cc2)c2cccc(Cl)c12)c1ccc(C(=O)O)cc1 [Compound 1-2, 4-[(Z)-1-cyano-2-[4-chloro-1-[(4-fluorophenyl)methyl]indol-3-yl]vinyl]benzoic Acid]"
3,> 10,"N#C/C(=C\c1cn(Cc2ccc(F)cc2)c2ccc(Cl)cc12)c1ccc(C(=O)O)cc1 [Compound 1-3, 4-[(Z)-2-[5-chloro-1-[(4-fluorophenyl)methyl]indol-3-yl]-1-cyano-vinyl]benzoic Acid]"
4,≤ 0.5,"N#C/C(=C\c1cn(Cc2ccc(F)cc2)c2cc(Cl)ccc12)c1ccc(C(=O)O)cc1 [Compound 1-4, (Z)-4-(2-(6-chloro-1-(4-fluorobenzyl)-1H-indol-3-yl)-1-cyanovinyl)benzoic Acid]"
5,0.5 to 10,"N#C/C(=C\c1cn(Cc2ccc(F)cc2)c2c(Cl)cccc12)c1ccc(C(=O)O)cc1 [Compound 1-5, 4-[(Z)-2-[7-chloro-1-[(4-fluorophenyl)methyl]indol-3-yl]-1-cyano-vinyl]benzoic Acid]"
6,0.5 to 10,"N#C/C(=C\c1cn(Cc2ccc(F)cc2)c2ccc(F)cc12)c1ccc(C(=O)O)cc1 [Compound 1-6, 4-[(Z)-1-cyano-2-[5-fluoro-1-[(4-fluorophenyl)methyl]indol-3-yl]vinyl]benzoic Acid]"
7,≤ 0.5,"N#C/C(=C\c1cn(Cc2ccc(F)cc2)c2cc(F)ccc12)c1ccc(C(=O)O)cc1 [Compound 1-7, 4-[(Z)-1-cyano-2-[6-fluoro-1-[(4-fluorophenyl)methyl]indol-3-yl]vinyl]benzoic Acid]"
8,0.5 to 10,"N#C/C(=C\c1cn(Cc2ccc(F)cc2)c2cc(Br)ccc12)c1ccc(C(=O)O)cc1 [Compound 1-8, 4-[(Z)-2-[6-bromo-1-[(4-fluorophenyl)methyl]indol-3-yl]-1-cyano-vinyl]benzoic Acid]"
9,0.5 to 10,"N#C/C(=C\c1cn(Cc2ccc(F)cc2)c2cc(C(F)(F)F)ccc12)c1ccc(C(=O)O)cc1 [Compound 1-9, 4-[(Z)-1-cyano-2-[1-[(4-fluorophenyl)methyl]-6-(trifluoromethyl)indol-3-yl]vinyl]benzoic Acid]"
10,≤ 0.5,"COc1ccc2c(/C=C(\C#N)c3ccc(C(=O)O)cc3)cn(Cc3ccc(F)cc3)c2c1 [Compound 1-10, 4-[(Z)-1-cyano-2-[1-[(4-fluorophenyl)methyl]-6-methoxy-indol-3-yl]vinyl]benzoic Acid]"
11,> 10,"N#C/C(=C\c1cn(CCc2ccc(F)cc2)c2cc(Cl)ccc12)c1ccc(C(=O)O)cc1 [Compound 1-22, 4-[(Z)-2-[6-chloro-1-[2-(4-fluorophenyl)ethyl]indol-3-yl]-1-cyano-vinyl]benzoic Acid]"

# Continued, compound first:
row,SMILES,IC50 [µM]
1,"N#C/C(=C\c1cn(Cc2ccc(F)cc2)c2cc(F)cc(F)c12)c1ccc(C(=O)O)cc1 [Compound 1-11, 4-[(Z)-1-cyano-2-[4,6-difluoro-1-[(4-fluorophenyl)methyl]indol-3-yl]vinyl]benzoic Acid]",≤ 0.5
2,"CCCn1cc(-n2cc(/C=C(\C#N)c3ccc(C(=O)O)cc3)c3ccc(Cl)cc32)cn1 [Compound 1-12, 4-[(Z)-2-[6-chloro-1-(1-propylpyrazol-4-yl)indol-3-yl]-1-cyano-vinyl]benzoic Acid]",> 10
3,"N#C/C(=C\c1cn(Cc2ccccc2)c2cc(Cl)ccc12)c1ccc(C(=O)O)cc1 [Compound 1-13, 4-[(Z)-2-(1-benzyl-6-chloro-indol-3-yl)-1-cyano-vinyl]benzoic Acid]",0.5 to 10
4,"N#C/C(=C\c1cn(Cc2ccncc2)c2cc(Cl)ccc12)c1ccc(C(=O)O)cc1 [Compound 1-14, 4-[(Z)-2-[6-chloro-1-(4-pyridylmethyl)indol-3-yl]-1-cyano-vinyl]benzoic Acid]",0.5 to 10
5,"N#C/C(=C\c1cn(Cc2cnc(C(F)(F)F)s2)c2cc(Cl)ccc12)c1ccc(C(=O)O)cc1 [Compound 1-15, 4-[(Z)-2-[6-chloro-1-[[2-(trifluoromethyl)thiazol-5-yl]methyl]indol-3-yl]-1-cyano-vinyl]benzoic Acid]",≤ 0.5
6,"N#C/C(=C\c1cn(Cc2ccc(Cl)nc2)c2cc(Cl)ccc12)c1ccc(C(=O)O)cc1 [Compound 1-16, 4-[(Z)-2-[6-chloro-1-[(6-chloro-3-pyridyl)methyl]indol-3-yl]-1-cyano-vinyl]benzoic Acid]",≤ 0.5
7,"CCOc1ncc(Cn2cc(/C=C(\C#N)c3ccc(C(=O)O)cc3)c3ccc(Cl)cc32)s1 [Compound 1-17, 4-[(Z)-2-[6-chloro-1-[(2-ethoxythiazol-5-yl)methyl]indol-3-yl]-1-cyano-vinyl]benzoic Acid]",0.5 to 10
8,"CCCc1noc(Cn2cc(/C=C(\C#N)c3ccc(C(=O)O)cc3)c3ccc(Cl)cc32)n1 [Compound 1-18, 4-[(Z)-2-[6-chloro-1-[(3-propyl-1,2,4-oxadiazol-5-yl)methyl]indol-3-yl]-1-cyano-vinyl]benzoic Acid]",0.5 to 10
9,"N#C/C(=C\c1cn(Cc2cc(Cl)cc(Cl)c2)c2cc(Cl)ccc12)c1ccc(C(=O)O)cc1 [Compound 1-19, 4-[(Z)-2-[6-chloro-1-[(3,5-dichlorophenyl)methyl]indol-3-yl]-1-cyano-vinyl]benzoic Acid]",0.5 to 10
10,"N#C/C(=C\c1cn(Cc2cc(C(F)(F)F)cc(C(F)(F)F)c2)c2cc(Cl)ccc12)c1ccc(C(=O)O)cc1 [Compound 1-20, 4-[(Z)-2-[1-[[3,5-bis(trifluoromethyl)phenyl]methyl]-6-chloro-indol-3-yl]-1-cyano-vinyl]benzoic Acid]",> 10
11,"N#C/C(=C\c1cn(Cc2ccc(C(F)(F)F)cc2)c2cc(Cl)ccc12)c1ccc(C(=O)O)cc1 [Compound 1-21, 4-[(Z)-2-[6-chloro-1-[[4-(trifluoromethyl)phenyl]methyl]indol-3-yl]-1-cyano-vinyl]benzoic Acid]",0.5 to 10
12,"N#C/C(=C\c1cn(CCCc2ccc(F)cc2)c2cc(Cl)ccc12)c1ccc(C(=O)O)cc1 [Compound 1-23, 4-[(Z)-2-[6-chloro-1-[3-(4-fluorophenyl)propyl]indol-3-yl]-1-cyano-vinyl]benzoic Acid]",> 10
13,"N#C/C(=C\c1cn(CCCc2ccccc2)c2cc(Cl)ccc12)c1ccc(C(=O)O)cc1 [Compound 1-24, 4-[(Z)-2-[6-chloro-1-(3-phenylpropyl)indol-3-yl]-1-cyano-vinyl]benzoic Acid]",0.5 to 10
14,"Cn1cc(Cn2cc(/C=C(\C#N)c3ccc(C(=O)O)cc3)c3ccc(Cl)cc32)cn1 [Compound 1-25, 4-[(Z)-2-[6-chloro-1-[(1-methylpyrazol-4-yl)methyl]indol-3-yl]-1-cyano-vinyl]benzoic Acid]",0.5 to 10
15,"COc1ccc(Cn2cc(/C=C(\C#N)c3ccc(C(=O)O)cc3)c3ccc(Cl)cc32)cn1 [Compound 1-26, 4-[(Z)-2-[6-chloro-1-[(6-methoxy-3-pyridyl)methyl]indol-3-yl]-1-cyano-vinyl]benzoic Acid]",≤ 0.5
16,"N#C/C(=C\c1cn(Cc2ccc(C(F)(F)F)nc2)c2cc(Cl)ccc12)c1ccc(C(=O)O)cc1 [Compound 1-27, 4-[(Z)-2-[6-chloro-1-[[6-(trifluoromethyl)-3-pyridyl]methyl]indol-3-yl]-1-cyano-vinyl]benzoic Acid]",≤ 0.5
